# In US20260174741A1, “METHODS OF REDUCING MIRO1 OR PHOSPHORYLATED ALPHA-SYNUCLEIN” (Acurex Biosciences Corporation, priority 2022, published 2026):
# Read-outs that look alike come from different tables or passages of the source.
# Tests used:
# Miro1 [1] = test: Interventional treatment of rat dopaminergic neurons after alpha-synuclein oligomer injury: Miro1 levels in TH+ neurons; format: cell-based; conditions: 4 days total, doses from 123 nM to 10 μM, compared to no treatment (FIG. 9)
# Experimental: Rat dopaminergic neurons were cultured as previously described (Schinelli, S. et al. Journal of Neurochemistry 1988, 50(6), pages 1900-1907). After 7 days of culture, cells were challenged with alpha-synuclein oligomer (500 nM) for 48 hours. Subsequent to the challenge, cells were subjected to alpha-synuclein (α-syn) oligomer (500 nM)+various concentrations of Compound 1 (0, 14, 41, 123, 370, 1100, 3300, and 10000 nM) for an additional 48 hours. By condition, N=6 wells were performed and one plate of 96 wells were performed.
# (§1) After 4 days of incubation with α-syn oligomer, cells were fixed by a solution of 4% paraformaldehyde for 20 min at room temperature, the control conditions were fixed as well following the same procedure. The cells were then permeabilized and non-specific sites were blocked with a solution of phosphate buffered saline containing (PBS) with saponin and FCS for 15 min at room temperature. […]
# (§2) For each well of culture, pictures were taken using InCell Analyzer™ 2200 (GE Healthcare) with 20× magnification. […] The number of dopaminergic neurons (TH), the neurite length of dopaminergic neurons, the signal of phosphorylated 129 of α-syn in dopaminergic neurons and the signal of Miro1 in dopaminergic neurons were automatically evaluated with Developer system analysis (GE Healthcare). All values were expressed as mean±standard error of the mean. […]
# Miro1 [2] = test: Rat primary midbrain neuron co-culture, alpha-synuclein oligomer challenge with co-dosed/pre-treated compound: Miro1 levels; format: cell-based; conditions: for Miro1 levels: absence of any neuronal challenge; for rescue of Miro1 elevation due to alpha-synuclein oligomer challenge: dose-response experiment (FIG. 3B, 6B); for Miro1 protein levels: immunocytochemistry, alpha-synuclein oligomers 500 nM, 96 hours; for Miro1 release: initial study
# Experimental: (§3) The neuronal challenge was alpha-synuclein oligomers.
# (§4) After incubation with alpha-synuclein (α-syn) oligomer, cells were fixed by a solution of 4% paraformaldehyde for 20 min at room temperature, the control conditions were fixed as well following the same procedure. The cells were then permeabilized and non-specific sites were blocked with a solution of phosphate buffered saline containing (PBS) with saponin and FCS for 15 min at room temperature. Cells were incubated with a chicken Anti-Tyrosine Hydroxylase antibody (TH, Abcam, ref 76442), a mouse monoclonal Anti-α-syn P129 antibody (Abcam, ref ab184674) and a Rabbit polyclonal Anti-Miro1 antibody (Sigma, ref: HPA010687) in PBS with saponin and FCS overnight at 4° C. […] Nuclei of cells were labelled by a fluorescent marker (Hoechst solution) in the same solution.
# (§5) For each well of culture, pictures were taken using InCell Analyzer™ 2200 (GE Healthcare) with 20× magnification. All the images were taken in the same conditions. The number of dopaminergic neurons (TH), the neurite length of dopaminergic neurons, the signal of phosphorylated 129 of α-syn in dopaminergic neurons and the signal of Miro1 in dopaminergic neurons were automatically evaluated with Developer system analysis (GE Healthcare). All values were expressed as mean±standard error of the mean. Statistical analyses were done on the different conditions (ANOVA followed by Dunnett's test).
# (§6) In an initial study, rat primary midbrain neuron co-cultures were incubated with alpha-synuclein oligomer alone, with 400 nM Compound 1, or with positive control.
# (§7) Immunocytochemistry was performed for DAPI (nuclear dye), Tyrosine Hydroxylase (TH, a marker for dopaminergic neurons), and phospho-Serine129 alpha-synuclein (pS129 α-syn, a pathogenic form of alpha-synuclein found in Lewy Body pathology) in primary rat midbrain neuron co-cultures. In naive untreated neuronal cultures, healthy TH-positive dopaminergic neurons with elaborate neurites were observed and there was very low pS129 α-synbackground signal. When these neuronal cultures were stressed with toxic exogenous alpha-synuclein oligomers (500 nM, 96 hours), there was a large and statistically significant (1) loss of TH+dopaminergic neuron viability, (2) decrease of TH+dopaminergic neuron neurite length, (3) increase in pS129 α-syn-positive Lewy Body formation, and (4) increase in Miro1 protein levels.
# [3] = test system: tyrosine-hydroxylase positive (TH+) dopaminergic neurons; test: Rat primary midbrain neuron co-culture, alpha-synuclein oligomer challenge with co-dosed/pre-treated compound: TH+ neuron count and neurite length; format: cell-based; conditions: for EC50: Rattus norvegicus, Neuron; for TH+ neurite length / TH+ neuron count: absence of any neuronal challenge; for dopamine neuron survival / dopamine neuron neurite length: dose-response experiment; for dopamine neuron survival: alpha-synuclein oligomer challenge (FIG. 2A, 5A); for dopamine neuron neurite length: alpha-synuclein oligomer challenge (FIG. 2B, 5B); for TH+ dopaminergic neuron neurite length / TH-positive dopaminergic neuron viability: immunocytochemistry, alpha-synuclein oligomers 500 nM, 96 hours
# Experimental: as §3, §4, §5, §6, §7
# [4] = test system: phosphorylated Ser129 alpha-synuclein; test: Interventional treatment of rat dopaminergic neurons after alpha-synuclein oligomer injury: phosphorylated Ser129-positive TH+ neurons; format: cell-based; conditions: interventional: 2 days alpha-syn oligomer 500 nM, then 2 more days with compound
# Experimental: (§8) Rat dopaminergic neurons were cultured as previously described (Schinelli, S. et al. Journal of Neurochemistry 1988, 50(6), pages 1900-1907). After 7 days of culture, cells were challenged with alpha-synuclein oligomer (500 nM) for 48 hours. […] By condition, N=6 wells were performed and one plate of 96 wells were performed.
# as §1, §2
# [5] = test system: tyrosine-hydroxylase positive (TH+) dopaminergic neurons; test: Rat primary midbrain neuron co-culture, alpha-synuclein oligomer challenge with co-dosed/pre-treated compound: TH+ neuron count and neurite length; format: cell-based; conditions: initial study, 40 nM, incubated with alpha-synuclein oligomer (FIG. 4A)
# [6] = test system: phosphorylated serine-129 (pS129) alpha-synuclein; test: Rat primary midbrain neuron co-culture, alpha-synuclein oligomer challenge with co-dosed/pre-treated compound: pS129 alpha-synuclein; format: cell-based; conditions: for IC50: Rattus norvegicus, Neuron, read-out: IC50 for lowering pathogenic pS129 alpha-synuclein; for number of pS129+ TH+ neurons: absence of any neuronal challenge; for levels of pathogenic pS129 alpha-synuclein: dose-response experiment, alpha-synuclein oligomer challenge (FIG. 3A, 6A); for pS129 alpha-syn-positive Lewy Body formation / pS129 alpha-syn-positive Lewy Body formation in TH-negative non-dopaminergic neurons: immunocytochemistry; for pS129 alpha-syn-positive Lewy Body formation: alpha-synuclein oligomers 500 nM, 96 hours; for pS129 alpha-syn-positive Lewy Body formation in TH-negative non-dopaminergic neurons: alpha-synuclein oligomers
# Experimental: as §3, §4, §5, §6, §7
# [7] = test system: TH+ neurite length of rat dopaminergic neurons; test: Interventional treatment of rat dopaminergic neurons after alpha-synuclein oligomer injury: TH+ neurite length; format: cell-based; conditions: interventional: 2 days alpha-syn oligomer, then 2 more days with compound
# Experimental: as §8, §1, §2
# ferroptosis = conditions: described in Example 2 of PCT/US23/73312 as Compound 4; read-out: ferroptosis inhibitor EC50; cited from earlier work
# [8] = test system: phosphorylated serine-129 (pS129) alpha-synuclein; test: Rat primary midbrain neuron co-culture, alpha-synuclein oligomer challenge with co-dosed/pre-treated compound: pS129 alpha-synuclein; format: cell-based; conditions: initial study, 40 nM, incubated with alpha-synuclein oligomer (FIG. 4C)
# [9] = test system: Parkinson's disease subject-derived fibroblast lines; test: Ferroptosis assay: human fibroblast survival assay with RSL3 challenge; format: cell-based; conditions: DAPI-positive nuclei count, read-out: EC50 for cell survival (ferroptosis inhibition)
# Experimental: Human fibroblast survival assay. All fibroblasts were obtained from the National Institute of Neurological Disorders and Stroke (NINDS) cell line repository housed at Rutgers University. Compounds were tested in at least one of the following Parkinson's disease subject-derived fibroblast lines: Line ND29802 (LRRK2 G2019S mutation carrier), Line ND40996 (SNCA A53T mutation carrier), or Line ND34263 (GBA N370S mutation carrier).
# Human fibroblasts were seeded into 96-well plates on Day 0. On Day 1, fibroblasts were challenged with RSL3 (a ferroptosis activator, CAS No. 1219810-16-8) alone or in co-treatment with test compound administered in dose response. On Day 2, fibroblasts were fixed and stained by the nuclear stain 4′, 6-diamidino-2-phenylindole (DAPI), and the number of DAPI-positive nuclei were counted for each condition using the Yokogawa CQ1 imaging platform to quantify the EC50 for cell survival.
smiles,measurement,setting,value
"C[C@@H](NC(=O)Cc1ccc(C(F)(F)F)cc1)c1cc2cnn(CC(F)(F)F)c2cn1 [Compound 1, (R)—N-(1-(1-(2,2,2-trifluoroethyl)-1H-pyrazolo[3,4-c]pyridin-5-yl)ethyl)-2-(4-(trifluoromethyl)phenyl)acetamide]",Miro1 levels in TH+ neurons,Miro1 [1],statistically significantly reduced
same,Miro1 levels,Miro1 [2],did not affect
same,rescue of Miro1 elevation due to alpha-synuclein oligomer challenge,Miro1 [2],did not reach statistical significance
same,Miro1 protein levels,Miro1 [2]; pre-treated 400 nM,decrease in Miro1 protein levels
same,Miro1 release,"Miro1 [2]; 400 nM, incubated with alpha-synuclein oligomer (FIG. 1B)",statistically significant rescue of Miro1 release
same,EC50,"[3]; alpha-synuclein oligomer challenge, read-out: EC50 for rescue of TH-positive neurite length",< 150 nM
same,EC50,"[3]; alpha-synuclein oligomer challenge, read-out: EC50 for rescue of TH-positive neuron viability",~250 nM
same,TH+ neurite length,[3],did not affect
same,TH+ neuron count,[3],did not affect
same,dopamine neuron survival,[3],rescued dopamine neuron survival in a dose-dependent fashion
same,dopamine neuron neurite length,[3],rescued dopamine neuron neurite length in a dose-dependent fashion
same,TH+ dopaminergic neuron neurite length,[3]; pre-treated 400 nM,rescue of TH+dopaminergic neuron neurite length
same,TH-positive dopaminergic neuron viability,[3]; pre-treated 400 nM,rescue of TH-positive dopaminergic neuron viability
same,TH+ neuronal loss induced by alpha-synuclein oligomer,"[3]; initial study, 400 nM, incubated with alpha-synuclein oligomer (FIG. 1A)",prevented TH+ neuronal loss
same,levels of phosphorylated Ser129-positive TH+ neurons,"[4]; doses from 370 nM to 10 μM, compared to no treatment (FIG. 7B)",significantly reduced
same,TH+ neuronal loss induced by alpha-synuclein oligomer,[5],prevented TH+ neuronal loss
same,IC50,[6]; alpha-synuclein oligomer challenge,< 125 nM
same,number of pS129+ TH+ neurons,[6],did not affect
same,levels of pathogenic pS129 alpha-synuclein,[6],lowered levels of pathogenic pS129 α-synin a dose-dependent fashion
same,pS129 alpha-syn-positive Lewy Body formation,[6]; pre-treated 400 nM,decrease/prevention in pS129 α-syn-positive Lewy Body formation
same,pS129 alpha-syn-positive Lewy Body formation in TH-negative non-dopaminergic neurons,[6]; pre-treatment 1.1 uM,robust decrease/prevention
same,pathogenic phosphorylated serine-129 (pS129) alpha-synuclein levels,"[6]; initial study, 400 nM, incubated with alpha-synuclein oligomer (FIG. 1C)",reduction of pathogenic phosphorylated serine-129 (pS129) alpha-synuclein levels
same,TH+ neurite length,"[7]; doses of 370 nM, 3.3 µM, or 10 µM, compared to no treatment (FIG. 8B)",significantly restored
CC(C)N1[C@@H]2CC[C@H]1CN(c1ccc3nc4ccc(=O)cc-4sc3c1)C2 [Compound 9],EC50,ferroptosis,2.9 nM
same,levels of phosphorylated Ser129-positive TH+ neurons,"[4]; doses of 11 nM, 33 nM, or 100 nM, compared to no treatment (FIG. 10B)",significantly reduced
same,TH+ neurite length,"[7]; doses of 11 nM, 33 nM, or 100 nM, compared to no treatment (FIG. 11B)",significantly restored
"CCN1CCN(c2ccc3nc4ccc(=O)cc-4sc3c2)CC1 [Compound 5, 7-(4-ethylpiperazin-1-yl)-3H-phenothiazin-3-one]",Miro1 levels,Miro1 [2],did not affect
same,rescue of Miro1 elevation due to alpha-synuclein oligomer challenge,Miro1 [2],did not reach statistical significance
same,Miro1 protein levels,Miro1 [2]; pre-treated 40 nM,decrease in Miro1 protein levels
same,Miro1 release,"Miro1 [2]; 40 nM, incubated with alpha-synuclein oligomer (FIG. 4B)",statistically significant rescue of Miro1 release
same,pathogenic phosphorylated serine-129 (pS129) alpha-synuclein levels,[8],reduction of pathogenic phosphorylated serine-129 (pS129) alpha-synuclein levels
same,EC50,[3]; read-out: EC50 for rescue of TH-positive neurite length,< 0.4 nM
same,EC50,[3]; read-out: EC50 for rescue of TH-positive neuron viability,~7 nM
same,TH+ neurite length,[3],did not affect
same,TH+ neuron count,[3],did not affect
same,dopamine neuron survival,[3],rescued dopamine neuron survival in a dose-dependent fashion
same,dopamine neuron neurite length,[3],rescued dopamine neuron neurite length in a dose-dependent fashion
same,TH+ dopaminergic neuron neurite length,[3]; pre-treated 40 nM,rescue of TH+dopaminergic neuron neurite length
same,TH-positive dopaminergic neuron viability,[3]; pre-treated 40 nM,rescue of TH-positive dopaminergic neuron viability
same,EC50,[9],3.6 nM
same,IC50,[6],< 0.4 nM
same,number of pS129+ TH+ neurons,[6],did not affect
same,levels of pathogenic pS129 alpha-synuclein,[6],lowered levels of pathogenic pS129 α-synin a dose-dependent fashion
same,pS129 alpha-syn-positive Lewy Body formation,[6]; pre-treated 40 nM,decrease/prevention in pS129 α-syn-positive Lewy Body formation
same,pS129 alpha-syn-positive Lewy Body formation in TH-negative non-dopaminergic neurons,[6]; pre-treatment 3.7 nM,robust decrease/prevention
